Each structure is given as a SMILES string.

Assay [1] has as its system rat annulus fibrosus cells. Kind of assay: Effect of antioxidants on gene expression under oxidative stress induced by hydrogen peroxide or BSO (RT-PCR). Format: cell-based. The settings on record: 24 hours. As for the experimental part: (§1) Total RNA was prepared using RNeasy Mini kit (manufactured by Qiagen N.V.) or TRIzol Reagent (manufactured by Thermo Fisher Scientific Inc.). cDNA was synthesized using Prime Script RT Reagent Kit (manufactured by Takara Bio Inc.).
(§2) RT-PCR amplification was performed with Thermal Cycler Dice Real-Time System (manufactured by Takara Bio Inc.) using SYBR Premix Ex Taq (manufactured by Takara Bio Inc.). Expression was normalized to β-actin or hypoxanthine phosphoribosyl transferase (HPRT). The results were analyzed by the ddCt method.
(§3) The PCR primers used were as follows: • TNF-α (F) : 5'-[…]-3' (SEQ ID NO: 1) (R) : 5'-[…]-3' (SEQ ID NO: 2) • MMP-3 (F) : 5'-[…]-3' (SEQ ID NO: 3) (R) : 5'-[…]-3' (SEQ ID NO: 4) • COX-2 (F) : 5'-[…]-3' (SEQ ID NO: 5) (R) : 5'-[…]-3' (SEQ ID NO: 6) • AGC1 (F) : 5'-[…]-3' (SEQ ID NO: 7) (R) : 5'-[…]-3' (SEQ ID NO: 8) • β-actin (F) : 5'-[…]-3' (SEQ ID NO: 9) (R) : 5'-[…]-3' (SEQ ID NO: 10) • HPRT (F) : 5'-[…]-3' (SEQ ID NO: 11) (R) : 5'-[…]-3' (SEQ ID NO: 12)
100 µM hydrogen peroxide or 1 mM BSO was added to rat annulus fibrosus cells in the presence of 100 µM NAC, and the cells were cultured for 24 hours, followed by the measurement of the mRNA expression of TNF-α, MMP-3, COX-2, and aggrecan (Figures 4A and 4B).
Hydrogen peroxide or BSO was added to rat annulus fibrosus cells in the presence of 20 mM α-tocopherol, and the cells were cultured for 24 hours, followed by the measurement of the mRNA expression of TNF-α, MMP-3, COX-2, and aggrecan (Figures 5A and 5B). Here, ethanol was used as a solvent for α-tocopherol. Cells cultured in a medium added only with ethanol were used as a control.

Assay [2] has as its system rat annulus fibrosus cells. Put plainly: Effect of antioxidants on oxidative stress induced by TNF-α (gene expression by RT-PCR). Format: cell-based. The conditions noted are these: 24 hours. The protocol:
Next, NAC or tocopherol was analyzed for whether to reduce oxidative stress induced by TNF-α by its addition. 50 ng/ml of TNF-α was added to cells in the presence of 100 µM NAC or 20 mM α-tocopherol, and the cells were collected 24 hours later, followed by gene expression analysis on MMP-3, COX-2, and aggrecan by RT-PCR (Figures 6C and 6D). NAC and tocopherol were also shown to suppress oxidative stress induced by the addition of TNF-α.

The test system of assay [3] is intervertebral disc degeneration models. Kind of assay: Rat caudal intervertebral disc puncture model, therapeutic administration, T2-weighted MRI. Format: in vivo, Wistar rats. As for the experimental part: The involvement of oxidative stress in intervertebral disc degeneration was studied. The caudal intervertebral discs of 8-week-old Wistar rats were punctured using a 23-G needle to prepare intervertebral disc degeneration models. A group that underwent only development without puncture (sham group) was used as a control group. Two months after the puncture, the T2 intramedullary high-intensity area was measured by MRI (GE Sigma Excite HD 1.5T, manufactured by GE Healthcare Corp.) under the following conditions: TR/TE, 3000/86; echo train length, 12; slice thickness, 2 mm; FOV, 10 cm; matrix size 352X224; NEX, 10 times.
The caudal intervertebral discs of 8-week-old female Wistar rats were punctured using a 23-G needle to prepare intervertebral disc degeneration models. The animals were divided into a group given NAC water (1 g/L) from 1 week after the puncture (NAC group) and a group raised with normal water (puncture group). A group that underwent only development without puncture (control group) was used as a control. Whether or not the administration of NAC would suppress intervertebral disc degeneration was studied 2 months after the puncture (see Figure 7A). The average body weight of the rats during the administration of NAC water was 220 g, and the average water intake of 24 hours was 35 g; thus, the rats took 159 mg/kg/day of NAC on average per day. The items to be studied were histological evaluation and a T2 intramedullary high-intensity area by MRI.
(§4) The present inventors prepared rat intervertebral disc degeneration models in the same way as above and conducted QSI analysis. Here, the QSI analysis was conducted using our uniquely developed program, though the analysis can employ software such as dTV II FZR. A puncture group, a NAC group, and a control group each involving 5 rats were subjected to the respective procedures and analyzed. […] The comparison of analysis results among the control group (a and d), the puncture group (b and e), and the NAC group (c and f) is shown.

In assay [4] the test system is intervertebral disc degeneration. The conditions noted are these: procedures for causing degeneration carried out after 1-week oral administration; Non Patent Literature 5; cited from earlier work.
The next assay concerns MAPK signaling cascade. Put plainly: Effect on MAPK signaling cascade activation caused by TNF-α (Western blotting). Format: cell-based, rat. The conditions noted are these: 50 ng/ml TNF-α in the presence of 100 µM NAC. The protocol: NAC was also analyzed for whether to suppress phosphorylation in the MAPK signaling cascade generating downstream signals of oxidative stress (Figure 6E). In the same way as above, cells were treated with 50 ng/ml TNF-α in the presence of 100 µM NAC and analyzed by Western blotting.

Assay [5] concerns intervertebral disc degeneration models. Kind of assay: Rat caudal intervertebral disc puncture model, Q-space imaging (QSI) analysis. Format: in vivo. As for the experimental part:
as §4

Assay [6] concerns MAPKs (p38, ERK, and JNK). Put plainly: MAPK phosphorylation after oxidative stress (Western blotting). Format: cell-based, rat. The settings on record: for phosphorylation of the MAPKs p38, ERK, and JNK: 10 minutes after treatment.
Description: Western blotting was performed by a standard method.
Downstream signals of oxidative stress were studied. The involvement of MAPKs (p38, ERK, and JNK) in the downstream system of signals induced by reactive oxygen species was analyzed. […] Protein extraction and Western blotting were performed in the same way as in the experiment using the animal models described above.
Detection was performed using an anti-p38 antibody, an anti-phosphorylated p38 antibody, an anti-JNK antibody, an anti-phosphorylated JNK antibody, an anti-ERK antibody, an anti-phosphorylated ERK antibody, an anti-NF-KB p65 antibody, an anti-phosphorylated NF-κB p65 antibody, or an anti-β-actin antibody (all manufactured by Cell Signaling Technology, Inc.) as a primary antibody, a HRP-conjugated goat anti-rabbit antibody (manufactured by Sigma-Aldrich Co. LLC) as a secondary antibody, and ECL Western Blotting Detection Reagent.
Likewise, downstream signals of oxidative stress were studied by the addition of BSO. Annulus fibrosus cells were treated with 1 mM BSO, collected 0, 5, 10, 30, or 60 minutes later, and analyzed by Western blotting.
The test system of assay [7] is rat annulus fibrosus cells. Put plainly: Intracellular level of reactive oxygen species (MitoTracker Orange staining, cell sorter). Format: cell-based. The protocol:
(§5) Rat annulus fibrosus cells were prepared as follows: rat annulus fibrosus tissues were dissected from the lumbar and coccyx intervertebral discs of 8-week-old female Wistar rats, treated with DMEM containing 0.04% pronase E (manufactured by SERVA Electrophoresis GmbH) at 37°C for 1 hour, and subsequently treated with 0.025% collagenase P (manufactured by Roche Diagnostics K.K.) at 37°C for 4 hours for isolation. The isolated cells were washed with Dulbecco's modified Eagle's medium (DMEM, manufactured by Invitrogen Corp.) containing 5% heat-inactivated fetal bovine serum (manufactured by JRH Biosciences Lenexa). The isolated annulus fibrosus cells were cultured in DMEM containing 10% fetal bovine serum and 1% penicillin-streptomycin under conditions of 5% CO2 at 37°C. The cells were used within the first five passages for analysis.

Assay [8] has as its system rat annulus fibrosus cells. Kind of assay: Alteration in gene expression by oxidative stress inducers (RT-PCR). The settings on record: 24 hours. Format: cell-based. The protocol: as §1, §2, §3, §5
Rat annulus fibrosus cells were cultured in a medium added with hydrogen peroxide (concentration: 10 µM and 100 µM) or BSO (concentration: 0.2 mM and 1 mM) for 24 hours and collected. RNA was extracted, and the mRNA expression of TNF-α, MMP-3, COX-2, and aggrecan was quantitatively measured by RT-PCR. RNA extraction and RT-PCR were performed in the same way as in the model animals described above.

For a further assay, the system named is COX-2 mRNA expression. Kind of assay: Effect of MAPK inhibitors on COX-2 gene expression under oxidative stress (RT-PCR). The settings on record: MAPK inhibitor 10 µM, 30 minutes later 100 µM hydrogen peroxide or 1 mM BSO; RT-PCR 24 hours later. Format: cell-based, rat. As for the experimental part:
Hydrogen peroxide or BSO was added to rat annulus fibrosus cells in the presence of MAPK inhibitors, and their effects on an increase in COX-2 mRNA expression were analyzed. The MAPK inhibitors used were PD98059 (ERK inhibitor; represented by PD in Figure 3), SP600125 (JNK inhibitor; represented by SP in Figure 3), and SB203580 (p38 inhibitor; represented by SB in Figure 3) (all manufactured by Wako Pure Chemical Industries, Ltd.). These MAPK inhibitors were each added at concentration of 10 µM to a medium, and 30 minutes later, 100 µM hydrogen peroxide or 1 mM BSO was added thereto. The expression of COX-2 was analyzed by RT-PCR 24 hours later.

[9] abbreviates: 20 mM α-tocopherol, hydrogen peroxide or BSO, ethanol control.
[10] abbreviates: puncture group versus NAC group.
Where [11] appears, read: 100 µM NAC, 100 µM hydrogen peroxide or 1 mM BSO.
[12] abbreviates: hydrogen peroxide 10 µM and 100 µM.

For the molecule `Cc1c(C)c2c(c(C)c1O)CCC(C)(CCCC(C)CCCC(C)CCCC(C)C)O2` (stereo not drawn) [α-tocopherol], in assay [1] (setting [9]), the “increase in the expression of COX-2 by oxidative stress” value is recorded as “significantly suppressed”, the “increase in the expression of MMP-3 by oxidative stress” value is reported as “significantly suppressed”, the “increase in the expression of TNF-α by oxidative stress” value was “significantly suppressed” and the “reduction in the expression of aggrecan by oxidative stress” value was “suppressed”. Besides, the “oxidative stress induced by the addition of TNF-α (gene expression of MMP-3, COX-2, and aggrecan)” value in assay [2] (50 ng/ml TNF-α in the presence of 20 mM α-tocopherol) is “suppress”.

As for `CC(=O)N[C@@H](CS)C(=O)O` [NAC, N-acetylcysteine], in assay [3] (159 mg/kg/day), the “effect of administration in an experiment using rats” value is recorded as “effective”. In addition, in assay [3] (5 rats per group), the “T2-weighted images, difference between the puncture group and the NAC group” value is “rarely showed the difference”. The T2 high-intensity area result in assay [3] (NAC water (1 g/L, 159 mg/kg/day) from 1 week after puncture, MRI 2 months after puncture, NAC group compared with puncture group) was “significantly improved”. Also, in assay [3] (setting [10]), the “T2 mapping values obtained from T2-weighted images focused on the nucleus pulposus” value is recorded as “did not significantly differ”. Moreover, in assay [1] (setting [11]), the “increase in the expression of COX-2 by oxidative stress” value was “significantly suppressed”, the “increase in the expression of MMP-3 by oxidative stress” value was “significantly suppressed”, the “increase in the expression of TNF-α by oxidative stress” value is given as “significantly suppressed” and the “reduction in the expression of aggrecan by oxidative stress” value is on record as “suppressed”. Further, in [2] (50 ng/ml TNF-α in the presence of 100 µM NAC), the “oxidative stress induced by the addition of TNF-α (gene expression of MMP-3, COX-2, and aggrecan)” value is “suppress”. Moreover, the intervertebral disc degeneration result in assay [4] is “prevented”. For the same molecule, the “activation of the MAPK signaling cascade caused by stimulation with TNF-α” value with MAPK signaling cascade is on record as “suppressed”. In addition, the “QSI analysis (probability at zero displacement), difference between the puncture group and the NAC group” value in [5] (5 rats per group) was “showed the difference”. Also, the QSI parameter values result in [5] (setting [10]) is given as “significant difference”. The “phosphorylation of p38 MAPK” value in assay [6] (100 µM hydrogen peroxide in the presence of 100 µM NAC, 15 minutes) was “significantly suppressed”.

Consider `CCCCS(=N)(=O)CCC(N)C(=O)O` (stereo not drawn) [BSO, buthionine sulfoximine], for which the “intracellular level of reactive oxygen species” value in assay [7] (1 mM BSO for 24 hours) is “increase”. Also, in assay [8] (BSO 0.2 mM and 1 mM), the “mRNA expression of COX-2” value is “concentration-dependent increase”, the “mRNA expression of MMP-3” value is “concentration-dependent increase”, the “mRNA expression of TNF-α” value is reported as “concentration-dependent increase” and the “mRNA expression of aggrecan” value is reported as “reduced in a concentration-dependent manner”. The “phosphorylation of the MAPKs p38, ERK, and JNK” value in [6] (1 mM BSO) is recorded as “strongly phosphorylated”.

For `OO` [hydrogen peroxide], the “intracellular level of reactive oxygen species” value in assay [7] (100 µM hydrogen peroxide for 24 hours) is on record as “increase”. Also, in assay [8] (setting [12]), the “mRNA expression of COX-2” value is on record as “concentration-dependent increase”, the “mRNA expression of MMP-3” value is given as “concentration-dependent increase”, the “mRNA expression of TNF-α” value was “concentration-dependent increase” and the “mRNA expression of aggrecan” value is “reduced in a concentration-dependent manner”. For the same molecule, in [6] (100 µM hydrogen peroxide), the “phosphorylation of the MAPKs p38, ERK, and JNK” value is “strongly phosphorylated”.

Consider `COc1cccc(-c2cc(=O)c3ccccc3o2)c1N` [PD], for which the “expression of COX-2” value with COX-2 mRNA expression is recorded as “significantly suppressed”.

Take `C[S+]([O-])c1ccc(-c2nc(-c3ccncc3)c(-c3ccc(F)cc3)[nH]2)cc1` (stereo not drawn) [SB]: in the assay with COX-2 mRNA expression, the “expression of COX-2” value is listed as “significantly suppressed”.
